Test [1] has as its target T1, 5-HT1A receptor (Homo sapiens, UniProt P08908).
T1 sequence (P08908 1-422): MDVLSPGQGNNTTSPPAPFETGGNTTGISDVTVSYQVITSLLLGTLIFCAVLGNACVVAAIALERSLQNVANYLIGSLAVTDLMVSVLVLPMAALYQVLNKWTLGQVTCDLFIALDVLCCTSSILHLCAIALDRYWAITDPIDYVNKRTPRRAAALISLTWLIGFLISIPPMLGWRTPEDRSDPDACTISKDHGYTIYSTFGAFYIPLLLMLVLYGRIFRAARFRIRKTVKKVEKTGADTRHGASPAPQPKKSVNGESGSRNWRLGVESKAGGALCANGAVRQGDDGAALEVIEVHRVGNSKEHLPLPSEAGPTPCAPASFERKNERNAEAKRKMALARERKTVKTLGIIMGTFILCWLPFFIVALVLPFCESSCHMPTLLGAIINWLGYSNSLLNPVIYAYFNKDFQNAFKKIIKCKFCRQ
Briefly: cAMP accumulation assay, 5-HT1A function. Format: cell-based. The settings on record: for IC50: cells marked IC50 (antagonist), read-out: 5-HT1A Function cAMP IC50; for Emax: in brackets after EC50 or IC50, read-out: 5-HT1A Function cAMP (Emax); for EC50: cells marked EC50 (agonist). In general terms: Cyclic AMP is a second messenger, typically raised through Gs and lowered through Gi signalling.

The target of test [2] is T1, 5-HT1A receptor. Briefly: 5-HT1A receptor affinity: displacement of [3H] 8-OH-DPAT. Further details: expressed in transfected cells. The test is classed as binding. To be noted: displacement of [3H] 8-OH-DPAT; CHO cells stably transfected with human 5-HT1A receptors; read-out: 5-HT1A Receptor Affinity Ki. (In general: Loss of bound radioactivity is the signal in a displacement assay; it reports binding, not function.)

A further test addresses T2, serotonin transporter (Rattus norvegicus, UniProt P31652).
T2 construct: displace ^3H-paroxetine from male rat cortical membranes; from tissue; host or cells: male rat cortical membranes
Briefly: 5-HT transporter affinity: displacement of 3H-paroxetine from male rat cortical membranes. Format: binding. The settings on record: for Ki: displacement of 3H-paroxetine, male rat cortical membranes, read-out: 5-HT Transporter Affinity Ki.

For test [3], the target named is T3, cloned human 5-HT1A receptors (Homo sapiens, UniProt P08908).
T3 construct: expressed in transfected cells
T3 sequence (P08908 1-422): T1 sequence (P08908 1-422)
Briefly: 35S-GTPγS binding assay, 5-HT1A function. To be noted: for IC50: antagonist potency, reversal of 8-OH-DPAT, read-out: 5-HT1A Function GTPγS IC50; for EC50: agonist potency. The test is classed as biochemical.

Setting [4] is: maximum inhibitory effect, in brackets after IC50, read-out: 5-HT1A Function GTPγS (Imax).
Setting [5] is: maximum stimulatory effect, in brackets after EC50, read-out: 5-HT1A Function GTPγS (Emax).

Read-outs that look alike come from different tables or passages of the source.

T2 sequence (P31652 whole entry): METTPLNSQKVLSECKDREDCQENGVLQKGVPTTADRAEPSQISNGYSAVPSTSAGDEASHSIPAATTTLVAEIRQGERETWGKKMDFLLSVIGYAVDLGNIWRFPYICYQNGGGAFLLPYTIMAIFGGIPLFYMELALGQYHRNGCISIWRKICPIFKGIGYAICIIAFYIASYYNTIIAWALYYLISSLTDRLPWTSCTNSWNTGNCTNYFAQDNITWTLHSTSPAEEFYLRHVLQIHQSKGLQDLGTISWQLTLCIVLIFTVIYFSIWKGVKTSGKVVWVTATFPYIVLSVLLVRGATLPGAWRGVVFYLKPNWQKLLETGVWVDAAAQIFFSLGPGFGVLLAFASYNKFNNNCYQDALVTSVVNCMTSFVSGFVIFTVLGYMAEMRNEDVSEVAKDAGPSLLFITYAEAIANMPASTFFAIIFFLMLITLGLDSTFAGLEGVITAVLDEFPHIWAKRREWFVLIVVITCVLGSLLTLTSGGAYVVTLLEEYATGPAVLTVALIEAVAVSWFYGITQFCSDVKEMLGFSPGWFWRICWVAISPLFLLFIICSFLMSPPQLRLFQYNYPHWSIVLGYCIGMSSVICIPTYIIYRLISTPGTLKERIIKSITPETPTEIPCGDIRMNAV

One may read the IC50 as the concentration at which inhibition is half-maximal. As usually defined, the Ki is a dissociation constant, usually derived from enzyme kinetics or from competition with a known ligand. `NC(=O)c1ccc(F)c2c1C[C@H](N(CCCCc1c[nH]c3ccc(F)cc13)C1CCC1)CO2` [Compound 83b, (3S)-3-{cyclobutyl[4-(5-fluoro-1H-indol-3-yl)butyl]amino}-8-fluorochromane-5-carboxamide]: the figures for the IC50 (at 5-HT1A receptor [1]; in test [3]) were 5.8 µM and 2.5 µM, respectively. In addition, the Emax at 5-HT1A receptor [1] amounted to 0%; in test [3] (setting [4]), 100%. Further, the inhibitory constant (Ki) on 5-HT1A receptor [2] came out at 0.111 µM; on serotonin transporter, 0.0169 µM.

With `CNC(=O)c1ccc(F)c2c1CC(N(CCc1c[nH]c3ccc(F)cc13)CC1CC1)CO2` (stereo not shown) [Compound 86, 3-{(cyclopropylmethyl)[2-(5-fluoro-1H-indol-3-yl)ethyl]amino}-8-fluoro-N-methylchromane-5-carboxamide], the concentration for half-maximal inhibition (IC50) at 5-HT1A receptor [1] amounted to 0.229 µM; in test [3] it was 0.773 µM. In addition, the Emax is 0% at 5-HT1A receptor [1] and 100% in test [3] (setting [4]). Also, the Ki was 0.00882 µM on 5-HT1A receptor [2] and 0.07 µM at serotonin transporter.

Consider `CNC(=O)c1ccc(F)c2c1CC(N(CCc1c[nH]c3ccc(F)cc13)C1CCC1)CO2` (stereo not shown) [Compound 87, 3-{cyclobutyl[2-(5-fluoro-1H-indol-3-yl)ethyl]amino}-8-fluoro-N-methylchromane-5-carboxamide], for which the values for the half-inhibitory concentration (IC50) (on 5-HT1A receptor [1]; in test [3]) were 0.172 µM and 0.513 µM, respectively. Further, the results for the Emax (on 5-HT1A receptor [1]; in test [3] (setting [4])) were 0% and 100%, respectively. The inhibitory constant (Ki) at 5-HT1A receptor [2] came to 0.00701 µM; on serotonin transporter it was 0.0265 µM.

By EC50 is commonly meant the concentration at which the effect is half-maximal. Consider `CCCN(CCCc1c[nH]c2ccc(F)cc12)C1COc2c(F)ccc(C(=O)NC)c2C1` (stereo not shown) [Compound 90, 8-fluoro-3-[[3-(5-fluoro-1H-indol-3-yl)propyl](propyl)amino]-N-methylchromane-5-carboxamide], for which the IC50 is 0.0738 µM at 5-HT1A receptor [1] and 0.617 µM in test [3]. The Emax on 5-HT1A receptor [1] is 0%; in test [3] (setting [4]), 33%; in test [3] (setting [5]), 47%. Also, the inhibitory constant (Ki) at 5-HT1A receptor [2] stood at 0.00081 µM; on serotonin transporter it was 0.00337 µM. Moreover, the midpoint of the response in test [3], the EC50, lay at 0.0345 µM.

Take `CNC(=O)c1ccc(F)c2c1CC(N(CCCc1c[nH]c3ccc(F)cc13)CC1CC1)CO2` (stereo not shown) [Compound 91, 3-{(cyclopropylmethyl)[3-(5-fluoro-1H-indol-3-yl)propyl]amino}-8-fluoro-N-methylchromane-5-carboxamide]: the IC50 was found to be 0.0883 µM on 5-HT1A receptor [1] and 0.191 µM in test [3]. Besides, the Emax is 0% at 5-HT1A receptor [1] and 77% in test [3] (setting [4]). Further, the Ki is 0.00228 µM on 5-HT1A receptor [2] and 0.00333 µM at serotonin transporter.

Regarding `CCCN(CCCCc1c[nH]c2ccc(F)cc12)C1COc2c(F)ccc(C(=O)NC)c2C1` (stereo not shown) [Compound 93, 8-fluoro-3-[[4-(5-fluoro-1H-indol-3-yl)butyl](propyl)amino]-N-methylchromane-5-carboxamide], the IC50 was 0.228 µM at 5-HT1A receptor [1] and 0.304 µM in test [3]. The Emax on 5-HT1A receptor [1] worked out at 0%; in test [3] (setting [4]) it was 100%. In addition, the Ki at 5-HT1A receptor [2] was determined as 0.00767 µM; on serotonin transporter, 0.00249 µM.

Take `CNC(=O)c1ccc(F)c2c1CC(N(CCCCc1c[nH]c3ccc(F)cc13)CC1CC1)CO2` (stereo not shown) [Compound 94, 3-{(cyclopropylmethyl)[4-(5-fluoro-1H-indol-3-yl)butyl]amino}-8-fluoro-N-methylchromane-5-carboxamide]: the IC50 is 0.0584 µM on 5-HT1A receptor [1] and 0.141 µM in test [3]. Also, the Emax came to 0% at 5-HT1A receptor [1] and 100% in test [3] (setting [4]). Also, the results for the Ki on 5-HT1A receptor [2] and on serotonin transporter were 0.00166 µM and 0.00127 µM, respectively.

As for `CNC(=O)c1ccc(F)c2c1CC(N(CCCCc1c[nH]c3ccc(F)cc13)C1CCC1)CO2` (stereo not shown) [Compound 95, 3-{cyclobutyl[4-(5-fluoro-1H-indol-3-yl)butyl]amino}-8-fluoro-N-methylchromane-5-carboxamide], the IC50 was found to be 0.121 µM at 5-HT1A receptor [1] and 0.422 µM in test [3]. In addition, the figures for the Emax (at 5-HT1A receptor [1]; in test [3] (setting [4])) were 0% and 100%, respectively. The figures for the Ki on 5-HT1A receptor [2] and at serotonin transporter were 0.01 µM and 0.0064 µM, respectively.

For the compound `N#Cc1ccc2[nH]cc(CCCN(C3CCC3)[C@H]3COc4c(F)ccc(C(N)=O)c4C3)c2c1` [Compound 97b, (3R)-3-[[3-(5-cyano-1H-indol-3-yl)propyl](cyclobutyl)amino]-8-fluorochromane-5-carboxamide], the half-maximal inhibitory concentration (IC50) came out at 0.071 µM at 5-HT1A receptor [1] and 0.317 µM in test [3]. Also, the Emax was 0% at 5-HT1A receptor [1] and 100% in test [3] (setting [4]). In addition, the Ki is 0.00198 µM on 5-HT1A receptor [2] and 0.00244 µM on serotonin transporter.

For `N#Cc1ccc2[nH]cc(CCCN(CC3CC3)[C@@H]3COc4c(F)ccc(C(N)=O)c4C3)c2c1` [Compound 98a, (3S)-3-[[3-(5-cyano-1H-indol-3-yl)propyl](cyclopropylmethyl)amino]-8-fluorochromane-5-carboxamide], the IC50 at 5-HT1A receptor [1] was determined as 0.113 µM; in test [3], 0.586 µM. For the same compound, the Emax on 5-HT1A receptor [1] was found to be 0%; in test [3] (setting [4]) it was 51%. For the same compound, the inhibition constant (Ki) is 0.00472 µM on 5-HT1A receptor [2] and 0.0032 µM on serotonin transporter.

`N#Cc1ccc2[nH]cc(CCCN(CC3CC3)[C@H]3COc4c(F)ccc(C(N)=O)c4C3)c2c1` [Compound 98b, (3R)-3-[[3-(5-cyano-1H-indol-3-yl)propyl](cyclopropylmethyl)amino]-8-fluorochromane-5-carboxamide]: the IC50 on 5-HT1A receptor [1] is 0.162 µM; in test [3], 0.456 µM. The values for the Emax (at 5-HT1A receptor [1]; in test [3] (setting [4])) were 0% and 99%, respectively. Also, the figures for the Ki at 5-HT1A receptor [2] and on serotonin transporter were 0.0068 µM and 0.0055 µM, respectively.

Regarding `CCCN(CCCc1c[nH]c2c(OC)cccc12)C1COc2c(F)ccc(C(N)=O)c2C1` (stereo not shown) [Compound 100, 8-fluoro-3-[[3-(7-methoxy-1H-indol-3-yl)propyl](propyl)amino]chromane-5-carboxamide], the EC50 stood at 0.0615 µM on 5-HT1A receptor [1] and 0.0676 µM in test [3]. Moreover, the Emax on 5-HT1A receptor [1] was 87%; in test [3] (setting [5]), 100%. Besides, the Ki at 5-HT1A receptor [2] was 0.00385 µM; at serotonin transporter it was 0.141 µM.

On to `CCN(CCCc1c[nH]c2c(OC)cccc12)C1COc2c(F)ccc(C(N)=O)c2C1` (stereo not shown) [Compound 101, 3-{ethyl[3-(7-methoxy-1H-indol-3-yl)propyl]amino}-8-fluorochromane-5-carboxamide], for which the EC50 amounted to 0.0451 µM on 5-HT1A receptor [1] and 0.103 µM in test [3]. Further, the results for the Emax (on 5-HT1A receptor [1]; in test [3] (setting [5])) were 68.5% and 99%, respectively. In addition, the values for the Ki on 5-HT1A receptor [2] and at serotonin transporter were 0.0005 µM and 0.642 µM, respectively.

Take `COc1cccc2c(CCCN(C3CCC3)C3COc4c(F)ccc(C(N)=O)c4C3)c[nH]c12` (stereo not shown) [Compound 102, 3-{cyclobutyl[3-(7-methoxy-1H-indol-3-yl)propyl]amino}-8-fluorochromane-5-carboxamide]: the IC50 on 5-HT1A receptor [1] was determined as 0.27 µM; in test [3], 0.557 µM. Moreover, the Emax came out at 0% on 5-HT1A receptor [1] and 100% in test [3] (setting [4]). Further, the inhibition constant Ki at 5-HT1A receptor [2] worked out at 0.00322 µM; on serotonin transporter, 1.11 µM.

`COc1cccc2c(CCCN(CC3CC3)C3COc4c(F)ccc(C(N)=O)c4C3)c[nH]c12` (stereo not shown) [Compound 103, 3-{(cyclopropylmethyl)[3-(7-methoxy-1H-indol-3-yl)propyl]amino}-8-fluorochromane-5-carboxamide]: the IC50 is 0.172 µM at 5-HT1A receptor [1] and 1 µM in test [3]. Besides, the Emax was 0% at 5-HT1A receptor [1] and 95% in test [3] (setting [4]). Further, the Ki on 5-HT1A receptor [2] came out at 0.00354 µM; at serotonin transporter it was 0.976 µM.

For `CCCN(CCCc1c[nH]c2ccc(OC)cc12)C1COc2c(F)ccc(C(N)=O)c2C1` (stereo not shown) [Compound 106, 8-fluoro-3-[[3-(5-methoxy-1H-indol-3-yl)propyl](propyl)amino]chromane-5-carboxamide], the EC50 at 5-HT1A receptor [1] turned out to be 0.00253 µM; in test [3], 0.0531 µM. Moreover, the Emax at 5-HT1A receptor [1] was 99%; in test [3] (setting [4]), 42%; in test [3] (setting [5]) it was 47%. The Ki on 5-HT1A receptor [2] stood at 0.00061 µM. For the same compound, the “5-HT Transporter Affinity, % @ 1 μM” value on serotonin transporter (@ 1 μM) came to 53% @ 1 μM. Further, the 50% inhibitory concentration (IC50) in test [3] came to 0.111 µM.

As to `COc1ccc2[nH]cc(CCCN(C3CCC3)C3COc4c(F)ccc(C(N)=O)c4C3)c2c1` (stereo not shown) [Compound 107, 3-{cyclobutyl[3-(5-methoxy-1H-indol-3-yl)propyl]amino}-8-fluorochromane-5-carboxamide], the figures for the IC50 (at 5-HT1A receptor [1]; in test [3]) were 0.0451 µM and 0.253 µM, respectively. In addition, the figures for the Emax (at 5-HT1A receptor [1]; in test [3] (setting [4])) were 0% and 100%, respectively. Also, the Ki is 0.00119 µM at 5-HT1A receptor [2] and 0.834 µM on serotonin transporter.

`COc1ccc2[nH]cc(CCCN(CC3CC3)C3COc4c(F)ccc(C(N)=O)c4C3)c2c1` (stereo not shown) [Compound 108, 3-{(cyclopropylmethyl)[3-(5-methoxy-1H-indol-3-yl)propyl]amino}-8-fluorochromane-5-carboxamide]: the IC50 on 5-HT1A receptor [1] is 0.0454 µM; in test [3] it was 0.0942 µM. Besides, the values for the Emax (on 5-HT1A receptor [1]; in test [3] (setting [4])) were 0% and 100%, respectively. Moreover, the values for the Ki on 5-HT1A receptor [2] and at serotonin transporter were 0.00117 µM and 0.882 µM, respectively.

The values are drawn from US20050032873A1, “3-Amino chroman and 2-amino tetralin derivatives” (Wyeth, priority 2003, published 2005).
